Test results published in patent US5985968A, “Surface tension reduction with N,N-dialkyl ureas” (Air Products and Chemicals, Inc., priority 1997, dated 1999).

What was measured:
Assay type in all cases: physicochemical
[1] = Dynamic surface tension of aqueous solutions, maximum-bubble-pressure method; conditions: saturated (<0.1 wt %), about 23° C.
Description: This invention relates to the use of compounds of the formula [drawing 3] where R1 and R2 are independently C1 to C6 alkyl or cycloalkyl with the total number of carbons in R and R' being 6-12 for the reduction of equilibrium and dynamic surface tension in water-based formulations containing an organic compound, particularly coating, ink, and agricultural formulations. […] The maximum-bubble-pressure method of measuring surface tension is described in Langmuir 1986, 2, 428-432, which is incorporated by reference.
In the following examples dynamic surface tension data were generated for aqueous solutions of the indicated compounds using the maximum-bubble-pressure method at the indicated bubble rates, i.e., bubbles/second (b/s), and room temperature of about 23° C. The equipment used was a Kruss BP 2 bubble pressure tensiometer.
(§1) A saturated solution in distilled water of N,N'-di-n-butylurea was prepared by placing 0.1 g of the urea into 99.9 g of water and shaking the mixture for 1-2 h. […] The solids were removed by filtration, and the dynamic surface tension of the resulting solution was measured using the maximum bubble pressure method at bubble rates from 0.1 to 20 b/s. […] In practical terms, high bubble rates correspond to high printing speeds in lithographic or ink-jet printing, high spray or roller velocities in coating applications, and rapid application rates for agricultural products.
Aqueous solutions of N,N-dibutylurea were prepared and their surface tensions were measured using the procedure described above.

[2] = Solubility in water (saturated solution / solubility limit); conditions: for dissolution (in words): 0.1 g urea in 99.9 g water, shaken 1-2 h; for solubility thermodynamic: saturated solution in distilled water, solids filtered off, read-out: Concentration of saturated solution
Method: A series of aqueous solutions of various concentrations of n-octylurea [Pfaltz & Bauer] was prepared by placing the urea into water and shaking the mixture for 1-2 h. All of the urea dissolved in the low concentration samples. Undissolved urea in some of the higher concentration samples was remove by filtration. Surface tensions of these solutions were measured using the Wilheimy plate technique. This method provides equilibrium surface tension values. Equilibrium values are always equal to or lower than those obtained under dynamic conditions.
as §1
A saturated solution in distilled water of N,N-di-(2-ethylhexyl)urea was prepared by placing 0.1 g of the urea into 99.9 g of water and shaking the mixture for 1-2 h. […] The solids were removed by filtration, and the surface tension of the resulting solution was measured as described above.
Similarly, a saturated solution in distilled water of N,N-di-n-octylurea was prepared by placing 0.1 g of the urea into 99.9 g of water and shaking the mixture for 1-2 hr. […] The solids were removed by filtration, and the surface tension of the resulting solution was measured as described above.
A saturated solution in distilled water of N,N-di-n-hexylurea was prepared by placing 0.1 g of the urea into 99.9 g of water and shaking the mixture for 1-2 h. […] The solids were removed by filtration, and the surface tension of the resulting solution was measured as described above.

[3] = Foaming properties of 0.1 wt % solution, procedure based upon ASTM D 1173-53
Method: The foaming properties of a 0.1 wt % solution of N,N-dibutylurea, N,N-dipentyl-urea, and N,N-dihexylurea were examined using a procedure based upon ASTM D 1173-53. In this test, a 0.1 wt % solution of the surfactant is added from an elevated foam pipette to a foam receiver containing the same solution. The foam height is measured at the completion of the addition ("Initial Foam Height") and the time required for the foam to dissipate is recorded ("Time to 0 Foam"). This test provides a comparison between the foaming characteristics of various surfactant solutions. In general, in coatings, inks, and agricultural formulations, foam is undesirable because is complicates handling and can lead to coating and print defects, and to inefficient application of agricultural materials.

Row | SMILES | Dynamic Surface Tension ([1]; 0.1 b/s) | Dynamic Surface Tension ([1]; 1 b/s) | Dynamic Surface Tension ([1]; 6 b/s) | Dynamic Surface Tension ([1]; 15 b/s) | Dynamic Surface Tension ([1]; 20 b/s) | dissolution (in words) [2] | solubility thermodynamic [2] | Initial Foam Height [3] | Time to 0 Foam [3]
1 | CCCCNC(=O)NCCCC [N,N'-Di-n-butylurea, N,N'-di-n-butylurea, reference compound] | 59.0 dyne/cm | 59.6 dyne/cm | 60.2 dyne/cm | 60.6 dyne/cm | 60.9 dyne/cm | Most of the N,N'-di-n-butylurea remained undissolved | < 1000 µg/mL |  | 
2 | CCCCC(CC)CN(CC(CC)CCCC)C(N)=O (stereo not drawn) [N,N-Di-(2-ethylhexyl)urea, N,N-di-(2-ethylhexyl)urea, reference compound] | 60.1 dyne/cm | 69.2 dyne/cm | 69.6 dyne/cm | 69.3 dyne/cm | 68.1 dyne/cm | Most of the urea remained undissolved | < 1000 µg/mL |  | 
3 | CCCCCCN(CCCCCC)C(N)=O [N,N-Di-n-hexylurea, N,N-di-n-hexylurea] | 34.7 dyne/cm | 42.8 dyne/cm | 56.8 dyne/cm | 63.7 dyne/cm | 62.4 dyne/cm | Most of the N,N-di-n-hexylurea remained undissolved | < 1000 µg/mL | 1.0 cm | 2 s
4 | CCCCCCCCN(CCCCCCCC)C(N)=O [N,N-Di-n-octylurea, N,N-di-n-octylurea, reference compound] | 52.9 dyne/cm | 69.8 dyne/cm | 71.1 dyne/cm | 70.3 dyne/cm | 69.4 dyne/cm | Most of the urea remained undissolved | < 1000 µg/mL |  | 
